Reference: patent US11752104B2, “Oral composition and methods for manufacturing the same and treatment” (MEDICAL AND PHARMACEUTICAL INDUSTRY TECHNOLOGY AND …, priority 2019, dated 2023)

Experiment: Particle size of milled tacrolimus particles by laser particle size analyzer (Malvern 3000)
Format: physicochemical
Details: for D90 / D10 / D50 / D [3, 3] / D [4, 3]: Malvern 3000
Method: The milling process is conducted under the water bath at the temperature of about 4 to 18° C. for decreasing high-released energy in case of the deactivation of the milled particles.
Table 1 illustrates the statistically analyzed diameter size of the milled particles after different milling time, detected by laser particle size analyzer, Malven 3000. After milling for 90 mins, the D90 of the particles is decreased to a level of less than 400 nm. Furthermore, it was observed that preferred D90 of milled particles would be limited in the range of 100 nm to 800 nm. If D90 is less than 100 nm, the issue of particle aggregation cannot be prevented. If D90 is greater than 800 nm, the favorable effect is not significant.

In the case of `C=CC[C@@H]1/C=C(\C)C[C@H](C)C[C@H](OC)[C@H]2O[C@@](O)(C(=O)C(=O)N3CCCC[C@H]3C(=O)O[C@H](/C(C)=C/[C@@H]3CC[C@@H](O)[C@H](OC)C3)[C@H](C)[C@@H](O)CC1=O)[C@H](C)C[C@@H]2OC` [tacrolimus], the “D90 of the particles” value (after milling for 90 mins) is reported as “less than 400 nm”, the D90 (milling time 0 min (unmilled)) is reported as 17.000 μm and the D10 (milling time 0 min) is reported as 2.300 μm. For the same molecule, the D50 (milling time 0 min) was 6.600 μm, the “D [3, 3]” value (milling time 0 min) was 4.860 μm and the “D [4, 3]” value (milling time 0 min) was 8.880 μm. The D10 (milling time 15 min) was 0.157 μm, the D50 (milling time 15 min) was 0.338 μm and the D90 (milling time 15 min) was 0.967 μm. The “D [3, 3]” value (milling time 15 min) was 0.294 μm, the “D [4, 3]” value (milling time 15 min) was 0.578 μm and the D10 (milling time 30 min) was 0.119 μm. For the same molecule, the D50 (milling time 30 min) was 0.255 μm, the D90 (milling time 30 min) was 0.572 μm and the “D [3, 3]” value (milling time 30 min) was 0.219 μm. For the same molecule, the “D [4, 3]” value (milling time 30 min) was 0.328 μm, the D10 (milling time 45 min) was 0.123 μm and the D50 (milling time 45 min) was 0.270 μm. The D90 (milling time 45 min) was 0.608 μm, the “D [3, 3]” value (milling time 45 min) was 0.230 μm and the “D [4, 3]” value (milling time 45 min) was 1.360 μm. It also gave a D10 (milling time 60 min) of 0.094 μm, a D50 (milling time 60 min) of 0.198 μm and a D90 (milling time 60 min) of 0.426 μm. For the same molecule, the “D [3, 3]” value (milling time 60 min) was 0.170 μm, the “D [4, 3]” value (milling time 60 min) was 0.232 μm and the D10 (milling time 75 min) was 0.088 μm. The D50 (milling time 75 min) was 0.183 μm, the D90 (milling time 75 min) was 0.390 μm and the “D [3, 3]” value (milling time 75 min) was 0.158 μm. The “D [4, 3]” value (milling time 75 min) was 0.216 μm, the D10 (milling time 90 min) was 0.083 μm and the D50 (milling time 90 min) was 0.174 μm. The D90 (milling time 90 min) was 0.364 μm, the “D [3, 3]” value (milling time 90 min) was 0.149 μm and the “D [4, 3]” value (milling time 90 min) was 0.202 μm.
